# Measured values from ChEMBL document CHEMBL1201862, “PubChem BioAssay data set” (2004).
#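 Grown in 96-well plates, cells were treated for 48 hours with each compound at five concentrations. Insufficient inhibition: endpoint recorded as highest concentration tested. GI50: concentration for 50% inhibition of growth.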 Calls of active or inactive are those of the source. No stated cut-off is given here; in the data, active = GI50 up to about 1.1 µM and inactive = higher.
# Columns and labels:
# Test in all cases: NCI tumour cell line growth inhibition, 48 h
# A498 = tested on: A498
# KM12 = tested on: KM12
# NCI-H23 = tested on: NCI-H23
# IGROV-1 = tested on: IGROV-1
# NCI-H226 = tested on: NCI-H226
# NCI-H460 = tested on: NCI-H460
# MDA-MB-435 = tested on: MDA-MB-435
# LOX IMVI = tested on: LOX IMVI
# UO-31 = tested on: UO-31
# HCT-116 = tested on: HCT-116
# SW-620 = tested on: SW-620
# CCRF-CEM = tested on: CCRF-CEM
# NCI-H522 = tested on: NCI-H522
# PC-3 = tested on: PC-3
# BT-549 = tested on: BT-549
# MDA-N = tested on: MDA-N
# SN12C = tested on: SN12C
# SF-295 = tested on: SF-295
# HOP-62 = tested on: HOP-62
# MOLT-4 = tested on: MOLT-4
# UACC-257 = tested on: UACC-257
# OVCAR-4 = tested on: OVCAR-4
# HOP-92 = tested on: HOP-92
# A549 = tested on: A549
# CAKI-1 = tested on: CAKI-1
# OVCAR-8 = tested on: OVCAR-8
# SR = tested on: SR
# SF-539 = tested on: SF-539
# EKVX = tested on: EKVX
# MDA-MB-231 = tested on: MDA-MB-231
# Hs-578T = tested on: Hs-578T
# SF-268 = tested on: SF-268
# HCT-15 = tested on: HCT-15
# OVCAR-3 = tested on: OVCAR-3
# T47D = tested on: T47D
# UACC-62 = tested on: UACC-62
# MCF7 = tested on: MCF7
# RXF 393 = tested on: RXF 393
# ACHN = tested on: ACHN
# OVCAR-5 = tested on: OVCAR-5
# K562 = tested on: K562
# Malme-3M = tested on: Malme-3M
# SK-MEL-5 = tested on: SK-MEL-5
# COLO 205 = tested on: COLO 205
# M14 = tested on: M14
# SNB-75 = tested on: SNB-75
# 786-0 = tested on: 786-0
# SNB-19 = tested on: SNB-19
# NCI/ADR-RES = tested on: NCI/ADR-RES
# HL-60 = tested on: HL-60
# HT-29 = tested on: HT-29
# SK-MEL-28 = tested on: SK-MEL-28
# SK-MEL-2 = tested on: SK-MEL-2
# TK-10 = tested on: TK-10
# RPMI-8226 = tested on: RPMI-8226
# DU-145 = tested on: DU-145
# U-251 = tested on: U-251
# SK-OV-3 = tested on: SK-OV-3
compound,measurement,setting,value
O=C(O)C1CCCN1Cc1c[nH]c2ccccc12 (stereo not drawn),GI50,A498,> 100 µM (inactive)
same,GI50,KM12,> 100 µM (inactive)
same,GI50,NCI-H23,> 100 µM (inactive)
same,GI50,IGROV-1,> 100 µM (inactive)
same,GI50,NCI-H226,> 100 µM (inactive)
same,GI50,NCI-H460,> 100 µM (inactive)
same,GI50,MDA-MB-435,> 100 µM (inactive)
same,GI50,LOX IMVI,> 100 µM (inactive)
same,GI50,UO-31,> 100 µM (inactive)
same,GI50,HCT-116,> 100 µM (inactive)
same,GI50,SW-620,> 100 µM (inactive)
same,GI50,CCRF-CEM,> 100 µM (inactive)
same,GI50,NCI-H522,> 100 µM (inactive)
same,GI50,PC-3,> 100 µM (inactive)
same,GI50,BT-549,> 100 µM (inactive)
same,GI50,MDA-N,> 100 µM (inactive)
same,GI50,SN12C,> 100 µM (inactive)
same,GI50,SF-295,> 100 µM (inactive)
same,GI50,HOP-62,> 100 µM (inactive)
same,GI50,MOLT-4,> 100 µM (inactive)
same,GI50,UACC-257,> 100 µM (inactive)
same,GI50,OVCAR-4,> 100 µM (inactive)
same,GI50,HOP-92,> 100 µM (inactive)
same,GI50,A549,> 100 µM (inactive)
same,GI50,CAKI-1,> 100 µM (inactive)
same,GI50,OVCAR-8,> 100 µM (inactive)
same,GI50,SR,> 100 µM (inactive)
same,GI50,SF-539,> 100 µM (inactive)
same,GI50,EKVX,> 100 µM (inactive)
same,GI50,MDA-MB-231,> 100 µM (inactive)
same,GI50,Hs-578T,> 100 µM (inactive)
same,GI50,SF-268,> 100 µM (inactive)
same,GI50,HCT-15,> 100 µM
same,GI50,OVCAR-3,> 100 µM (inactive)
same,GI50,T47D,> 100 µM (inactive)
same,GI50,UACC-62,> 100 µM (inactive)
same,GI50,MCF7,> 100 µM (inactive)
same,GI50,RXF 393,> 100 µM (inactive)
same,GI50,ACHN,> 100 µM (inactive)
same,GI50,OVCAR-5,> 100 µM (inactive)
same,GI50,K562,> 100 µM (inactive)
same,GI50,Malme-3M,> 100 µM (inactive)
same,GI50,SK-MEL-5,> 100 µM (inactive)
same,GI50,COLO 205,> 100 µM (inactive)
same,GI50,M14,> 100 µM (inactive)
same,GI50,SNB-75,> 100 µM (inactive)
same,GI50,786-0,> 100 µM (inactive)
same,GI50,SNB-19,> 100 µM (inactive)
same,GI50,NCI/ADR-RES,> 100 µM (inactive)
same,GI50,HL-60,> 100 µM (inactive)
same,GI50,HT-29,> 100 µM (inactive)
same,GI50,SK-MEL-28,> 100 µM (inactive)
same,GI50,SK-MEL-2,> 100 µM (inactive)
same,GI50,TK-10,> 100 µM (inactive)
same,GI50,RPMI-8226,> 100 µM (inactive)
same,GI50,DU-145,> 100 µM (inactive)
same,GI50,U-251,> 100 µM (inactive)
same,GI50,SK-OV-3,> 100 µM (inactive)
